Legend:
Candida albicans = assay: Antimicrobial screening by agar dilution; type: cell-based; conditions: after 10, 20, 40 and 60 minutes at all dilutions 1:100, 1:200, 1:400, 1:800
Procedure: (§1) The antibacterial properties of the synthesized compound 6-(3-hydroxyphenyl)-2-methoxy-4-(3-methylphenyl)nicotinonitrile were studied by the method of agar dilution. Test solutions of each compound was prepared in concentration of 1% using dimethylformamide as a solvent then they are diluted in physiological solution to obtain the final experimental dilutions 1:100, 1:200, 1:400, 1:800. The effects of these substances are compared with furacillin in a controllable study. The testing microbes used were gram positive bacteria Staphylococcus aureus, gram negative bacteria Pseudomonas aeruginosa and Escherichia coli and Candida albicans fungus. The experiments used for this survey were meat-pentonlu agar (EPA) for cultivation of bacteria and Saburo environment for the fungus. Each experiment used 1 mL of test solution on each plate […]. Two drops of emulsified with microbes feel were added. All experimental samples were taken from the agar after 10, 20, 40, 60 minutes in the environment on the basis of Patrk planted. The bacteria were cultivated at a temperature of 37° C. for 1 day and the mushroom was kept in a thermostat for […] at a temperature of 28° C. Then results were checked.

Escherichia coli = assay: Antimicrobial screening by agar dilution; type: cell-based; conditions: after 10, 20, 40 and 60 minutes at all dilutions 1:100, 1:200, 1:400, 1:800
Procedure: as §1

Pseudomonas aeruginosa = assay: Antimicrobial screening by agar dilution; type: cell-based; conditions: after 10, 20, 40 and 60 minutes at all dilutions 1:100, 1:200, 1:400, 1:800
Procedure: as §1

Staphylococcus aureus = assay: Antimicrobial screening by agar dilution; type: cell-based; conditions: after 10, 20, 40 and 60 minutes at all dilutions 1:100, 1:200, 1:400, 1:800
Procedure: as §1

COc1nc(-c2cccc(O)c2)cc(-c2cccc(C)c2)c1C#N [6-(3-hydroxyphenyl)-2-methoxy-4-(3-methylphenyl)nicotinonitrile]
inhibition activity (in words) (Candida albicans): highest inhibition activity | inhibition activity (in words) (Escherichia coli): highest inhibition activity | inhibition activity (in words) (Pseudomonas aeruginosa): highest inhibition activity | inhibition activity (in words) (Staphylococcus aureus): highest inhibition activity | melting point: 205 to 207 °C

Reference: patent publication US11970451B1, “6-(3-hydroxyphenyl)-2-methoxy-4-(3-methylphenyl)nicotinonitrile as an antimicrobial compound” (KING FAISAL UNIVERSITY, priority 2023, dated 2024)
